Structures can show the parent of a compound that is named as a salt.
Assays:
LYCHOS = target: T1, LYCHOS (Homo sapiens, UniProt Q7Z3F1); assay: SPR Kd and cryo-EM structure of the complex; assay type: binding
T1 sequence (Q7Z3F1 1-870): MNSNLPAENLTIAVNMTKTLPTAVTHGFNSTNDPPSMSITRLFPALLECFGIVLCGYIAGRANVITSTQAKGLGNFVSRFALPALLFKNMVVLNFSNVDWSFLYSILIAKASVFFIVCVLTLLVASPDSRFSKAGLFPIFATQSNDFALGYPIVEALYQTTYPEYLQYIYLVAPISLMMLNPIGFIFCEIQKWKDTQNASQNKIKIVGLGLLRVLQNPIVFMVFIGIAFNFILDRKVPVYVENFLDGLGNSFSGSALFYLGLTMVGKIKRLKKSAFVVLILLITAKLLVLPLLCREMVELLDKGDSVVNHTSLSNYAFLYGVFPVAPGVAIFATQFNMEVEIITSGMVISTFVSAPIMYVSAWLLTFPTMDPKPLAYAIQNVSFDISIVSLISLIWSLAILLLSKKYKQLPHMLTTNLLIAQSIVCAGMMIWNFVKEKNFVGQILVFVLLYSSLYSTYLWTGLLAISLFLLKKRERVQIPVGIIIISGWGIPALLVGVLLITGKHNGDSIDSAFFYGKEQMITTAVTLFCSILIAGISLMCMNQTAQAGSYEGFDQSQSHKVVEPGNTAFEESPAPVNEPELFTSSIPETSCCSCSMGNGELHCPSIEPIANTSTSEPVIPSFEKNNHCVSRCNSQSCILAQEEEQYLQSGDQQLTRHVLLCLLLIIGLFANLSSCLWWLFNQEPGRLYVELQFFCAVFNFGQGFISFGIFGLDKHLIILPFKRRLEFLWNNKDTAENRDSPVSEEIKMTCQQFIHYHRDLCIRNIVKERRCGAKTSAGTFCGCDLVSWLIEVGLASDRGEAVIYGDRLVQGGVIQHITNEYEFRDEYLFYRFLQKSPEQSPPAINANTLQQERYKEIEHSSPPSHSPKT

cryo-EM structure = target: the molecule itself; assay: cryo-EM structure

Molecule | Kd (LYCHOS) [µM] | stoichiometry N (cryo-EM structure)
O=S(=O)(O)Oc1c[nH]c2ccccc12 [IS, indoxyl sulfate] | ~150 | –
human LYCHOS (lysosomal cholesterol signaling protein), C-terminal FLAG and 10×His tags (natural protein, UniProt Q7Z3F1 1-870, looked up, N-acetylglucosamine linked to Asn309) MNSNLPAENLTIAVNMTKTLPTAVTHGFNSTNDPPSMSITRLFPALLECFGIVLCGYIAGRANVITSTQAKGLGNFVSRFALPALLFKNMVVLNFSNVDWSFLYSILIAKASVFFIVCVLTLLVASPDSRFSKAGLFPIFATQSNDFALGYPIVEALYQTTYPEYLQYIYLVAPISLMMLNPIGFIFCEIQKWKDTQNASQNKIKIVGLGLLRVLQNPIVFMVFIGIAFNFILDRKVPVYVENFLDGLGNSFSGSALFYLGLTMVGKIKRLKKSAFVVLILLITAKLLVLPLLCREMVELLDKGDSVVNHTSLSNYAFLYGVFPVAPGVAIFATQFNMEVEIITSGMVISTFVSAPIMYVSAWLLTFPTMDPKPLAYAIQNVSFDISIVSLISLIWSLAILLLSKKYKQLPHMLTTNLLIAQSIVCAGMMIWNFVKEKNFVGQILVFVLLYSSLYSTYLWTGLLAISLFLLKKRERVQIPVGIIIISGWGIPALLVGVLLITGKHNGDSIDSAFFYGKEQMITTAVTLFCSILIAGISLMCMNQTAQAGSYEGFDQSQSHKVVEPGNTAFEESPAPVNEPELFTSSIPETSCCSCSMGNGELHCPSIEPIANTSTSEPVIPSFEKNNHCVSRCNSQSCILAQEEEQYLQSGDQQLTRHVLLCLLLIIGLFANLSSCLWWLFNQEPGRLYVELQFFCAVFNFGQGFISFGIFGLDKHLIILPFKRRLEFLWNNKDTAENRDSPVSEEIKMTCQQFIHYHRDLCIRNIVKERRCGAKTSAGTFCGCDLVSWLIEVGLASDRGEAVIYGDRLVQGGVIQHITNEYEFRDEYLFYRFLQKSPEQSPPAINANTLQQERYKEIEHSSPPSHSPKT | – | 2

Source: PMC11928621 (Nature Communications, 2025)
